Reference: ChEMBL document CHEMBL1795221, “In vitro and in vivo anticancer activity evaluation of ursolic acid derivatives” (Eur J Med Chem, 2011)
pIC50: −log10 of the molar value. Calls of active or inactive are those of the source. No cut-off for these calls is given here.

What was measured:
[1] = tested on: BGC-823; test: Cytotoxicity against human BGC823 cells after 24 hrs by MTT assay; assay type: functional, cell-based; conditions: BGC-823, 24 h
[2] = tested on: SH-SY5Y; test: Cytotoxicity against human SH-SY5Y cells after 24 hrs by MTT assay; assay type: functional, cell-based
[3] = Cytotoxicity against human HELF cells after 24 hrs by MTT assay; assay type: cell-based
[4] = tested on: HepG2; test: Induction of apoptosis in human HepG2 cells at 10 to 30 uM after 24 hrs using acridine orange staining by fluorescence microscopy; assay type: functional, cell-based
[5] = tested on: HepG2; test: Induction of apoptosis in human HepG2 cells at 10 to 30 uM after 24 hrs using annexin V-EGFP/PI double staining by flow cytometry; assay type: functional, cell-based
[6] = tested on: HepG2; test: Induction of apoptosis in human HepG2 cells assessed as increase in caspase-3 activity at 10 to 30 uM after 24 hrs by spectrophotometry; assay type: functional, cell-based
[7] = tested on: BGC-823; test: Induction of apoptosis in human BGC823 cells assessed as increase in caspase-3 activity at 10 to 30 uM after 24 hrs by spectrophotometry; assay type: functional, cell-based
[8] = tested on: HepG2; test: Cell cycle arrest in human HepG2 cells assessed as accumulation at G0/G1 phase at 10 uM after 24 hrs using propidium iodide staining by flow cytometric analysis (reference value: 57.03 %); assay type: functional
[9] = tested on: HepG2; test: Cell cycle arrest in human HepG2 cells assessed as accumulation at S phase at 10 uM after 24 hrs using propidium iodide staining by flow cytometric analysis (reference value: 28.66 %); assay type: functional
[10] = tested on: HepG2; test: Cell cycle arrest in human HepG2 cells assessed as accumulation at G2/M phase at 10 uM after 24 hrs using propidium iodide staining by flow cytometric analysis (reference value: 14.31 %); assay type: functional
[11] = tested on: H22; test: Antitumor activity against mouse H22 cells xenografted in kunming mouse assessed as inhibition of tumor growth at 100 mg/kg, ip for 7 days; assay type: functional; conditions: 168 h, route intraperitoneal
[12] = tested on: H22; test: Antitumor activity against mouse H22 cells xenografted in kunming mouse assessed as inhibition of tumor growth at 150 mg/kg, ip for 7 days; assay type: functional; conditions: 168 h, route intraperitoneal
[13] = tested on: H22; test: Antitumor activity against mouse H22 cells xenografted in kunming mouse assessed as increase in body weight at 50 to 150 mg/kg, ip for 7 days; assay type: functional, organism-based
[14] = tested on: H22; test: Antitumor activity against mouse H22 cells xenografted in kunming mouse assessed as inhibition of tumor growth at 50 mg/kg, ip for 7 days; assay type: functional; conditions: 168 h, read-out: INH, route intraperitoneal
[15] = tested on: HepG2; test: Cell cycle arrest in human HepG2 cells assessed as accumulation at G0/G1 phase at 20 uM after 24 hrs using propidium iodide staining by flow cytometric analysis (reference value: 57.03 %); assay type: functional
[16] = tested on: HepG2; test: Cell cycle arrest in human HepG2 cells assessed as accumulation at S phase at 20 uM after 24 hrs using propidium iodide staining by flow cytometric analysis (reference value: 28.66 %); assay type: functional
[17] = tested on: HepG2; test: Cell cycle arrest in human HepG2 cells assessed as accumulation at G2/M phase at 20 uM after 24 hrs using propidium iodide staining by flow cytometric analysis (reference value: 14.31 %); assay type: functional
[18] = tested on: HepG2; test: Cell cycle arrest in human HepG2 cells assessed as accumulation at G0/G1 phase at 30 uM after 24 hrs using propidium iodide staining by flow cytometric analysis (reference value: 57.03 %); assay type: functional
[19] = tested on: HepG2; test: Cell cycle arrest in human HepG2 cells assessed as accumulation at S phase at 30 uM after 24 hrs using propidium iodide staining by flow cytometric analysis (reference value: 28.66 %); assay type: functional
[20] = tested on: HepG2; test: Cell cycle arrest in human HepG2 cells assessed as accumulation at G2/M phase at 30 uM after 24 hrs using propidium iodide staining by flow cytometric analysis (reference value: 14.31 %); assay type: functional
[21] = tested on: HepG2; test: Cell cycle arrest in human HepG2 cells assessed as accumulation at G0/G1 phase after 24 hrs using propidium iodide staining by flow cytometric analysis; assay type: functional, cell-based
[22] = tested on: HepG2; test: Cell cycle arrest in human HepG2 cells assessed as reduction at G2/M phase after 24 hrs using propidium iodide staining by flow cytometric analysis; assay type: functional, cell-based
[23] = tested on: HepG2; test: Cell cycle arrest in human HepG2 cells assessed as accumulation at S phase after 24 hrs using propidium iodide staining by flow cytometric analysis; assay type: functional, cell-based
[24] = tested on: HepG2; test: cells; conditions: Homo sapiens, HepG2, 24 h
Description: Cytotoxicity against human HepG2 cells after 24 hrs by MTT assay

[25] = tested on: HeLa; test: cells; conditions: Homo sapiens, 24 h
Description: Cytotoxicity against human HeLa cells after 24 hrs by MTT assay

Compound: CC(=O)O[C@H]1CC[C@]2(C)[C@H]3CC=C4[C@@H]5[C@@H](C)[C@H](C)CC[C@]5(C(=O)N(CCO)CCO)CC[C@@]4(C)[C@]3(C)CC[C@H]2C1(C)C
- pIC50 [1]: 4.81
- pIC50 [2]: 4.88
- pIC50 [3]: 4.42
- Activity [4]: Active
- Activity [5]: Dose-dependent effect
- Activity [6]: Dose-dependent effect
- Activity [7]: Dose-dependent effect
- Activity [8]: 55.89%
- Activity [9]: 32.13%
- Activity [10]: 11.98%
- inhibition in vivo at 100 mg/kg [11]: 45.6%
- inhibition in vivo at 150 mg/kg [12]: 43%
- Activity [13]: Active
- inhibition in vivo at 50 mg/kg [14]: 36.6%
- Activity [15]: 52.91%
- Activity [16]: 37.43%
- Activity [17]: 9.66%
- Activity [18]: 51.57%
- Activity [19]: 41.53%
- Activity [20]: 6.9%
- Activity [21]: Dose-dependent effect
- Activity [22]: Dose-dependent effect
- Activity [23]: Dose-dependent effect
- pIC50 [24]: 4.69
- pIC50 [25]: 4.96
